Source: the NIST ThermoML archive (doi:10.1007/s10765-008-0390-4)
Numbers after ± are expanded uncertainties.

Assay: xn = mol fraction of the nth substance listed
Details: 101 kPa, Liquid

c1ccccc1 [benzene] + CCCCO
mass density [kg/m3]
Details | 288.15 K | 293.15 K | 298.15 K | 303.15 K | 308.15 K | 313.15 K
x2 = 0 | 884.246 ± 0.15 | 878.918 ± 0.16 | 873.582 ± 0.16 | 868.233 ± 0.17 | 862.871 ± 0.17 | 857.498 ± 0.17
x2 = 0.0193 | 882.483 ± 0.16 | 877.168 ± 0.16 | 871.844 ± 0.17 | 866.507 ± 0.17 | 861.158 ± 0.17 | 855.809 ± 0.18
x2 = 0.0534 | 879.595 ± 0.16 | 874.309 ± 0.16 | 869.007 ± 0.17 | 863.694 ± 0.17 | 858.36 ± 0.18 | 853.019 ± 0.18
x2 = 0.1013 | 875.72 ± 0.16 | 870.495 ± 0.17 | 865.255 ± 0.17 | 859.995 ± 0.17 | 854.713 ± 0.18 | 849.433 ± 0.18
x2 = 0.1509 | 871.829 ± 0.17 | 866.677 ± 0.17 | 861.506 ± 0.17 | 856.309 ± 0.18 | 851.089 ± 0.18 | 845.861 ± 0.19
x2 = 0.2016 | 867.984 ± 0.17 | 862.908 ± 0.17 | 857.807 ± 0.18 | 852.685 ± 0.18 | 847.536 ± 0.19 | 842.375 ± 0.19
x2 = 0.2018 | 867.955 ± 0.17 | 862.874 ± 0.17 | 857.776 ± 0.18 | 852.651 ± 0.18 | 847.499 ± 0.19 | 842.342 ± 0.19
x2 = 0.25 | 864.382 ± 0.17 | 859.372 ± 0.18 | 854.344 ± 0.18 | 849.285 ± 0.19 | 844.201 ± 0.19 | 839.11 ± 0.19
x2 = 0.2997 | 860.741 ± 0.18 | 855.806 ± 0.18 | 850.849 ± 0.19 | 845.866 ± 0.19 | 840.854 ± 0.19 | 835.83 ± 0.2
x2 = 0.3532 | 856.936 ± 0.18 | 852.081 ± 0.19 | 847.201 ± 0.19 | 842.294 ± 0.19 | 837.357 ± 0.2 | 832.4 ± 0.2
x2 = 0.4019 | 853.504 ± 0.19 | 848.721 ± 0.19 | 843.914 ± 0.19 | 839.08 ± 0.2 | 834.214 ± 0.2 | 829.324 ± 0.2
x2 = 0.4525 | 850 ± 0.19 | 845.3 ± 0.19 | 840.574 ± 0.2 | 835.817 ± 0.2 | 831.029 ± 0.2 | 826.217 ± 0.21
x2 = 0.4998 | 846.738 ± 0.2 | 842.111 ± 0.2 | 837.46 ± 0.2 | 832.778 ± 0.2 | 828.059 ± 0.21 | 823.32 ± 0.21
x2 = 0.5532 | 843.129 ± 0.2 | 838.594 ± 0.2 | 834.03 ± 0.21 | 829.436 ± 0.21 | 824.804 ± 0.21 | 820.157 ± 0.22
x2 = 0.6004 | 839.985 ± 0.2 | 835.529 ± 0.21 | 831.042 ± 0.21 | 826.525 ± 0.21 | 821.974 ± 0.22 | 817.402 ± 0.22
x2 = 0.6493 | 836.693 ± 0.21 | 832.317 ± 0.21 | 827.91 ± 0.21 | 823.473 ± 0.22 | 819.001 ± 0.22 | 814.449 ± 0.22
x2 = 0.701 | 833.239 ± 0.21 | 828.949 ± 0.22 | 824.631 ± 0.22 | 820.282 ± 0.22 | 815.895 ± 0.23 | 811.483 ± 0.23
x2 = 0.7502 | 829.979 ± 0.22 | 825.772 ± 0.22 | 821.537 ± 0.22 | 817.269 ± 0.23 | 812.965 ± 0.23 | 808.64 ± 0.23
x2 = 0.7945 | 827.051 ± 0.22 | 822.92 ± 0.22 | 818.759 ± 0.23 | 814.569 ± 0.23 | 810.343 ± 0.23 | 806.094 ± 0.24
x2 = 0.8511 | 823.296 ± 0.23 | 819.258 ± 0.23 | 815.196 ± 0.23 | 811.102 ± 0.23 | 806.975 ± 0.24 | 802.822 ± 0.24
x2 = 0.8961 | 820.299 ± 0.23 | 816.336 ± 0.23 | 812.348 ± 0.24 | 808.331 ± 0.24 | 804.274 ± 0.24 | 800.189 ± 0.24
x2 = 0.951 | 816.663 ± 0.24 | 812.791 ± 0.24 | 808.897 ± 0.24 | 804.977 ± 0.24 | 801.025 ± 0.25 | 797.051 ± 0.25
